Laboratory results from patent US10124004B2, “Pyrido[3,4-d]pyrimidine derivative and pharmaceutically acceptable salt thereof” (Teijin Pharma Limited, priority 2015, dated 2018).
Where two headings read alike, the source gives them in different places.

What was measured:
CDK4/cyclin D3 = target: T1, CDK4/cyclin D3 (Homo sapiens, UniProt P11802); assay: Human CDK4/cyclin D3 inhibitory activity (QS S Assist CDK4/Cyclin D3_FP Kit, IMAP fluorescence polarization); assay type: biochemical
T1 construct: purchased Carna Biosciences, Inc. QS S Assist CDK4/Cyclin D3_FP Kit
T1 sequence (P11802 whole entry): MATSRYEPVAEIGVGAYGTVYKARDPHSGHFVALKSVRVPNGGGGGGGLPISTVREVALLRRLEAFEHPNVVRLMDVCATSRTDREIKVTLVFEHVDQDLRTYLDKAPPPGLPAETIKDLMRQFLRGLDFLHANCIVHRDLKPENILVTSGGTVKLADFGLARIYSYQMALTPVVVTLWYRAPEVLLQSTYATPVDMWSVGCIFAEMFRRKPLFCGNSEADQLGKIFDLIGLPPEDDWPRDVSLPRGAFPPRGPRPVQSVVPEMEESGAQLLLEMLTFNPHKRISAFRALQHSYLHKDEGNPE
T1 sequence (P30281 whole entry partner): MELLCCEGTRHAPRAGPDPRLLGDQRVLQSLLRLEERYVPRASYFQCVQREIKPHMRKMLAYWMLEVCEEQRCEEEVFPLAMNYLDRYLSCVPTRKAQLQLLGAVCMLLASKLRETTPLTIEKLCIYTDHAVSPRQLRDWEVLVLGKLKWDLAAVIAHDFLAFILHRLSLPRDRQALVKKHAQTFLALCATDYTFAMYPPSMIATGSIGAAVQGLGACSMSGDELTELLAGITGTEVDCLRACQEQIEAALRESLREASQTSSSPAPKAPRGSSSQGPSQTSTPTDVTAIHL
Summary of the method: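 Percent inhibition, relative to DMSO with and without enzyme, was curve-fitted to give IC50 from polarization (ex 485, em 535 nm). The 45-min room-temperature reaction used 12.5-25 ng/well enzyme, kit ATP/substrate/metal mix, and HEPES pH 7.4 buffer with Tween20 and DTT, followed by 30-min IMAP binding in the dark.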

CDK2/cyclin A2 = target: T2, CDK2/cyclin A2 (Homo sapiens, UniProt P24941); assay: Human CDK2/cyclin A2 inhibitory activity (QS S Assist CDK2/Cyclin A2_FP Kit, IMAP fluorescence polarization); assay type: biochemical
T2 construct: purchased Carna Biosciences, Inc. QS S Assist CDK2/Cyclin A2_FP Kit
Summary of the method: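 Kinase activity read as fluorescence polarization (485/535 nm) after phosphorylated fluorescent substrate binds IMAP reagent (30 min, RT, dark). Enzyme (2.5 ng/well) reacted 60 min at RT with ATP/substrate/metal in HEPES pH 7.4 buffer with Tween 20 and DTT; no-enzyme wells define 0% activity; IC50 by curve fit.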

[1] = Human CDK4/cyclin D3 inhibitory activity, read-out: CDK4 Activity symbol
[2] = Human CDK2/cyclin A2 inhibitory activity, read-out: CDK2 Activity symbol
[3] = 50% inhibitory concentration against CDK4/cyclin D3, given as class symbol
[4] = 50% inhibitory concentration against CDK2/cyclin A2, given as class symbol

Row | Compound | IC50 (CDK4/cyclin D3; [1]) | IC50 (CDK2/cyclin A2; [2]) | IC50 (CDK4/cyclin D3; [3]) | IC50 (CDK2/cyclin A2; [4])
1 | CC(C)Nc1nc([C@@H](C)O)cc2cnc(Nc3ccc(OCCN4CCNCC4=O)cn3)nc12 [Compound 550] | < 10 nM | ≥ 100 nM | – | –
2 | CO[C@H](C)c1cc2cnc(Nc3ccc(N4CCCCC(N)C4=O)cn3)nc2c(NC(C)C)n1 (some centres unmarked) [Compound 553] | < 10 nM | ≥ 100 nM | – | –
3 | CC(C)Nc1nc([C@@H](C)O)cc2cnc(Nc3ccc(N4CCCCC(N)C4=O)cn3)nc12 (some centres unmarked) [Compound 554] | < 10 nM | ≥ 100 nM | – | –
4 | CC(C)Nc1nc([C@@H](C)O)cc2cnc(Nc3ccc(CN4CCN(CCO)CC4)cn3)nc12 [Compound 555] | < 10 nM | ≥ 100 nM | – | –
5 | CO[C@H](C)c1cc2cnc(Nc3ccc(N4C[C@H]5CCN[C@H]5C4=O)cn3)nc2c(NC(C)C)n1 [Compound 556] | < 10 nM | 10 to 100 nM | – | –
6 | CO[C@H](C)c1cc2cnc(Nc3ccc(OCC(=O)N4CCNCC4)cn3)nc2c(NC(C)C)n1 [Compound 557] | < 10 nM | ≥ 100 nM | – | –
7 | CC(C)Nc1nc([C@@H](C)O)cc2cnc(Nc3ccc(N4C[C@H]5CCN[C@H]5C4=O)cn3)nc12 [Compound 558] | < 10 nM | 10 to 100 nM | – | –
8 | CC(C)Nc1nc([C@@H](C)O)cc2cnc(Nc3ccc(OCC(=O)N4CCNCC4)cn3)nc12 [Compound 559] | < 10 nM | ≥ 100 nM | – | –
9 | CO[C@H](C)c1cc2cnc(Nc3ccc(N4CCC(C)(N)CC4)nn3)nc2c(NC(C)C)n1 [Compound 560] | < 10 nM | ≥ 100 nM | – | –
10 | CC(C)Nc1nc([C@@H](C)O)cc2cnc(Nc3ccc(N4CCC(C)(N)CC4)nn3)nc12 [Compound 561] | < 10 nM | ≥ 100 nM | – | –
11 | CC(C)Nc1nc([C@@H](C)O)cc2cnc(Nc3ccc(N4CC5(CNC5)C4)nn3)nc12 [Compound 562] | < 10 nM | ≥ 100 nM | – | –
12 | CC(C)Nc1nc([C@@H](C)O)cc2cnc(Nc3ccc(O[C@H]4CCNC4)cn3)nc12 [Compound 566] | < 10 nM | ≥ 100 nM | – | –
13 | CC(C)Nc1nc([C@@H](C)O)cc2cnc(Nc3ccc(O[C@@H]4CCNC[C@H]4F)cn3)nc12 [Compound 567] | < 10 nM | ≥ 100 nM | – | –
14 | CC(C)Nc1nc([C@@H](C)O)cc2cnc(Nc3ccc(O[C@H]4CCNC[C@H]4F)cn3)nc12 [Compound 569] | < 10 nM | ≥ 100 nM | – | –
15 | CC(C)Nc1nc([C@@H](C)O)cc2cnc(Nc3ccc(O[C@@H]4CCNC4)cn3)nc12 [Compound 572] | < 10 nM | ≥ 100 nM | – | –
16 | CC(C)Nc1nc([C@@H](C)O)cc2cnc(Nc3ccc(N4CC5(CCN5)C4)nn3)nc12 [Compound 573] | < 10 nM | ≥ 100 nM | – | –
17 | CC(C)Nc1nc([C@@H](C)O)cc2cnc(Nc3ccc(N4CC5(CCNC5)C4)nn3)nc12 [Compound 574] | < 10 nM | ≥ 100 nM | – | –
18 | CC(C)Nc1nc([C@@H](C)O)cc2cnc(Nc3ccc(N4CC5(CCNCC5)C4)nn3)nc12 [Compound 575] | < 10 nM | ≥ 100 nM | – | –
19 | CC(C)Nc1nc([C@@H](C)O)cc2cnc(Nc3ccc(N4CC5(CC(N)C5)C4)nn3)nc12 [Compound 576] | < 10 nM | ≥ 100 nM | – | –
20 | CC(C)Nc1nc([C@@H](C)O)cc2cnc(Nc3ccc(OCC4CNC4)nn3)nc12 [Compound 579] | < 10 nM | ≥ 100 nM | – | –

Row | Compound | IC50 (CDK4/cyclin D3; [1]) | IC50 (CDK2/cyclin A2; [2]) | IC50 (CDK4/cyclin D3; [3]) | IC50 (CDK2/cyclin A2; [4])
21 | CC(C)Nc1nc([C@@H](C)O)cc2cnc(Nc3ccc(N4CCC(N)C4=O)cn3)nc12 (some centres unmarked) [Compound 583] | < 10 nM | ≥ 100 nM | – | –
22 | CC(C)Nc1nc([C@@H](C)O)cc2cnc(Nc3ccc(N4CCN(C(C)C)CC4=O)cn3)nc12 [Compound 584] | < 10 nM | ≥ 100 nM | – | –
23 | CC(C)Nc1nc([C@@H](C)O)cc2cnc(Nc3ccc(N4CCN(C(C)C)CC4)nn3)nc12 [Compound 585] | < 10 nM | ≥ 100 nM | – | –
24 | CC(C)CN1CCN(c2ccc(Nc3ncc4cc([C@@H](C)O)nc(NC(C)C)c4n3)nn2)CC1 [Compound 586] | < 10 nM | ≥ 100 nM | – | –
25 | CC(C)Nc1nc([C@@H](C)O)cc2cnc(Nc3ccc(N4CCN(C(C)CO)CC4)nn3)nc12 (some centres unmarked) [Compound 588] | < 10 nM | ≥ 100 nM | – | –
26 | C[C@@H](O)c1cc2cnc(Nc3ccc(N4CCC(O)CC4)nn3)nc2c(NC2CCC(C)(C)OC2)n1 (some centres unmarked) [Compound 589] | < 10 nM | ≥ 100 nM | – | –
27 | COC1CCC(Nc2nc([C@@H](C)O)cc3cnc(Nc4ccc(N5CCC(O)CC5)nn4)nc23)CC1 (some centres unmarked) [Compound 590] | < 10 nM | ≥ 100 nM | – | –
28 | CO[C@H](C)c1cc2cnc(Nc3ccc(N4CCCC(N)C4=O)cn3)nc2c(NC(C)C)n1 (some centres unmarked) [Compound 591] | < 10 nM | ≥ 100 nM | – | –
29 | CNCCOc1ccc(Nc2ncc3cc([C@@H](C)O)nc(NC4CCC(OC)CC4)c3n2)nc1 (some centres unmarked) [Compound 592] | < 10 nM | ≥ 100 nM | – | –
30 | CC(C)Nc1nc([C@@H](C)O)cc2cnc(Nc3ccc(N4CCCC(N)C4=O)cn3)nc12 (some centres unmarked) [Compound 593] | < 10 nM | ≥ 100 nM | – | –
31 | C[C@@H](O)c1cc2cnc(Nc3ccc(N4CCC(O)CC4)nn3)nc2c(N[C@H]2CCCOC2)n1 [Compound 595] | < 10 nM | ≥ 100 nM | – | –
32 | CC(C)CN1CCN(c2ccc(Nc3ncc4cc([C@@H](C)O)nc(NC(C)C)c4n3)nc2)C(=O)C1 [Compound 596] | < 10 nM | ≥ 100 nM | – | –
33 | CC(C)Nc1nc([C@@H](C)O)cc2cnc(Nc3ccc(N4CCN(CCO)CC4=O)cn3)nc12 [Compound 597] | < 10 nM | ≥ 100 nM | – | –
34 | C[C@@H](O)c1cc2cnc(Nc3ccc(OCCN(C)C)cn3)nc2c(NC2CCC(C)(C)OC2)n1 (some centres unmarked) [Compound 600] | < 10 nM | ≥ 100 nM | – | –
35 | CNC1(C)CCN(c2ccc(Nc3ncc4cc([C@@H](C)O)nc(NC(C)C)c4n3)nn2)CC1 [Compound 601] | < 10 nM | ≥ 100 nM | – | –
36 | CC(C)Nc1nc([C@@H](C)O)cc2cnc(Nc3ccc(N4CCN(C5CCC5)CC4)nn3)nc12 [Compound 602] | < 10 nM | ≥ 100 nM | – | –
37 | CC(C)Nc1nc([C@@H](C)O)cc2cnc(Nc3ccc(N4CCN(C(C)(C)C)CC4)nn3)nc12 [Compound 604] | < 10 nM | ≥ 100 nM | – | –
38 | CC(C)Nc1nc([C@@H](C)O)cc2cnc(Nc3ccc(N4CCC(N)CC4=O)cn3)nc12 (some centres unmarked) [Compound 605] | < 10 nM | 10 to 100 nM | – | –
39 | CNC1CC2(C1)CN(c1ccc(Nc3ncc4cc([C@@H](C)O)nc(NC(C)C)c4n3)nn1)C2 [Compound 606] | < 10 nM | ≥ 100 nM | – | –
40 | CC(C)Nc1nc(C(C)O)cc2cnc(Nc3ccc(N4CCC(O)C(F)C4)nn3)nc12 (centres unmarked) [Compound 608] | < 10 nM | ≥ 100 nM | – | –

Row | Compound | IC50 (CDK4/cyclin D3; [1]) | IC50 (CDK2/cyclin A2; [2]) | IC50 (CDK4/cyclin D3; [3]) | IC50 (CDK2/cyclin A2; [4])
41 | CNC1CCN(c2ccc(Nc3ncc4cc(C(C)O)nc(NC(C)C)c4n3)nn2)CC1F (centres unmarked) [Compound 609] | < 10 nM | ≥ 100 nM | – | –
42 | CNC1CCN(c2ccc(Nc3ncc4cc(C(C)O)nc(NC(C)C)c4n3)nn2)CC1F (centres unmarked) [Compound 610] | < 10 nM | ≥ 100 nM | – | –
43 | CC(C)Nc1nc([C@@H](C)O)cc2cnc(Nc3ccc(N4CC5(CC(N(C)C)C5)C4)nn3)nc12 [Compound 611] | < 10 nM | ≥ 100 nM | – | –
44 | C[C@@H](O)c1cc2cnc(Nc3ccc(N4CCNCC4=O)cn3)nc2c(N[C@H]2CC[C@H](C)CC2)n1 [Compound 612] | < 10 nM | 10 to 100 nM | – | –
45 | CC(C)Nc1nc([C@@H](C)O)cc2cnc(Nc3ccc(SCCN(C)C)nn3)nc12 [Compound 614] | < 10 nM | ≥ 100 nM | – | –
46 | CC(C)Nc1nc([C@@H](C)O)cc2cnc(Nc3ccc(CC(=O)N4CCN(C(C)C)CC4)cn3)nc12 [Compound 615] | < 10 nM | ≥ 100 nM | – | –
47 | CC(C)Nc1nc(C(C)O)cc2cnc(Nc3ccc(N4CCC(N)C(F)C4)nn3)nc12 (centres unmarked) [Compound 618] | < 10 nM | ≥ 100 nM | – | –
48 | CC(C)Nc1nc(C(C)O)cc2cnc(Nc3ccc(N4CCC(N)C(F)C4)nn3)nc12 (centres unmarked) [Compound 619] | < 10 nM | ≥ 100 nM | – | –
49 | CC(C)Nc1nc(C(C)O)cc2cnc(Nc3ccc(N4CCC(N(C)C)C(F)C4)nn3)nc12 (centres unmarked) [Compound 621] | < 10 nM | ≥ 100 nM | – | –
50 | CC(C)Nc1nc(C(C)O)cc2cnc(Nc3ccc(N4CCC(N(C)C)C(F)C4)nn3)nc12 (centres unmarked) [Compound 622] | < 10 nM | ≥ 100 nM | – | –
51 | CC(C)Nc1nc([C@@H](C)O)cc2cnc(Nc3ccc(N4C(=O)CN5CCC4CC5)cn3)nc12 [Compound 623] | < 10 nM | 10 to 100 nM | – | –
52 | C[C@@H](O)c1cc2cnc(Nc3ccc(N4CCNCC4=O)cn3)nc2c(N[C@H]2CC[C@@H](C)CC2)n1 [Compound 624] | < 10 nM | ≥ 100 nM | – | –
53 | CC(C)Nc1nc([C@@H](C)O)cc2cnc(Nc3ccc(N4CCN(CC(C)(C)O)CC4)nn3)nc12 [Compound 625] | < 10 nM | ≥ 100 nM | – | –
54 | CC(C)Nc1nc([C@@H](C)O)cc2cnc(Nc3ccc(CN4CCN(CC(C)(C)O)CC4)cn3)nc12 [Compound 626] | < 10 nM | ≥ 100 nM | – | –
55 | CC(C)Nc1nc([C@@H](C)O)cc2cnc(Nc3ccc(N4CCN(CC(C)(C)O)CC4=O)cn3)nc12 [Compound 627] | – | – | < 10 nM | ≥ 100 nM
56 | COC1CCC(Nc2nc([C@@H](C)O)cc3cnc(Nc4ccc(OCCN(C)C)cn4)nc23)CC1 (some centres unmarked) [Compound 628] | – | – | < 10 nM | ≥ 100 nM
57 | C[C@@H](O)c1cc2cnc(Nc3ccc(OCCN(C)C)cn3)nc2c(N[C@H]2CCCOC2)n1 [Compound 629] | – | – | < 10 nM | ≥ 100 nM
58 | CC(C)Nc1nc([C@@H](C)O)cc2cnc(Nc3ccc(N4CCCC5(CCCN5)C4=O)cn3)nc12 (some centres unmarked) [Compound 630] | – | – | < 10 nM | ≥ 100 nM
